The results in this text go back to ChEMBL document CHEMBL4390666, “Chemical manipulations on the 1,4-dioxane ring of 5-HT1A receptor agonists lead to antagonists endowed with antitumor activity in prostate cancer cells” (Eur J Med Chem, 2019).

Data set [1] addresses T1, 5-hydroxytryptamine receptor 1A (Homo sapiens, UniProt P08908).
T1 sequence (P08908 whole entry): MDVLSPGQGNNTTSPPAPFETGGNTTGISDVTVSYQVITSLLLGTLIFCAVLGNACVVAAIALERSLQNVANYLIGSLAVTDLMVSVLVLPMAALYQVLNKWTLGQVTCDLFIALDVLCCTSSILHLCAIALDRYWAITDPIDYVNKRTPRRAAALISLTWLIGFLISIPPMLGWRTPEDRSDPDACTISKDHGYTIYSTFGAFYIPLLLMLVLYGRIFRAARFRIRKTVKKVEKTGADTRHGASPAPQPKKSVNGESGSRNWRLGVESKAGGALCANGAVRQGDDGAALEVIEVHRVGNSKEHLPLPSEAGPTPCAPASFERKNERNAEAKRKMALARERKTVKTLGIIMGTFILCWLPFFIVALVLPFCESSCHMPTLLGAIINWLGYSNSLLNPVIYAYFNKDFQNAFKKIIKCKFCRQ
Nature of the data set: biochemical.

Data set [2] addresses T2, Alpha-1B adrenergic receptor (Homo sapiens, UniProt P35368).
T2 sequence (P35368 whole entry): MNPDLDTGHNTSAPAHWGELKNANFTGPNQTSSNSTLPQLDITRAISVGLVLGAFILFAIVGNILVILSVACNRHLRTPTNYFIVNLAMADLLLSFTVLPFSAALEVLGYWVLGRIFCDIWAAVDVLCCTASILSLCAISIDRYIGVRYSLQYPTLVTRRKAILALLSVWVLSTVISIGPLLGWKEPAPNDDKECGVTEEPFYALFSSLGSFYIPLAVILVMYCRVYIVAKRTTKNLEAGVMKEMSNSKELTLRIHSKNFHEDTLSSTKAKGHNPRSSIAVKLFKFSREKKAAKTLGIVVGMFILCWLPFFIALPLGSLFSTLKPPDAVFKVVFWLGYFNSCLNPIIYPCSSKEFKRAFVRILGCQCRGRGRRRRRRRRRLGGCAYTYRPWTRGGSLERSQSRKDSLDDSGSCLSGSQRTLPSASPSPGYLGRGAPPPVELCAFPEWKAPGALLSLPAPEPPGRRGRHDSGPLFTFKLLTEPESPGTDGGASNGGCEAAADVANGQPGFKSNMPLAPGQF
Nature of the data set: biochemical.
Description: Displacement of [3H]Prazosin from human recombinant alpha 1B adrenergic receptor expressed in CHO cells incubated for 30 mins by radioligand competition binding assay

For data set [3], the target named is T3, 5-hydroxytryptamine receptor 1A (Homo sapiens) (UniProt P08908).
T3 sequence (whole entry): T1 sequence (P08908 whole entry)
Particulars: HeLa.
Description: Antagonist activity at cloned human 5-HT1A receptor transfected in human HeLa cell membranes preincubated for 20 mins followed by [35S]GTPgammaS addition and measured after 30 mins by liquid scintillation counting

Data set [4] deals with T4, Alpha-1D adrenergic receptor (Homo sapiens, UniProt P25100).
T4 sequence (P25100 whole entry): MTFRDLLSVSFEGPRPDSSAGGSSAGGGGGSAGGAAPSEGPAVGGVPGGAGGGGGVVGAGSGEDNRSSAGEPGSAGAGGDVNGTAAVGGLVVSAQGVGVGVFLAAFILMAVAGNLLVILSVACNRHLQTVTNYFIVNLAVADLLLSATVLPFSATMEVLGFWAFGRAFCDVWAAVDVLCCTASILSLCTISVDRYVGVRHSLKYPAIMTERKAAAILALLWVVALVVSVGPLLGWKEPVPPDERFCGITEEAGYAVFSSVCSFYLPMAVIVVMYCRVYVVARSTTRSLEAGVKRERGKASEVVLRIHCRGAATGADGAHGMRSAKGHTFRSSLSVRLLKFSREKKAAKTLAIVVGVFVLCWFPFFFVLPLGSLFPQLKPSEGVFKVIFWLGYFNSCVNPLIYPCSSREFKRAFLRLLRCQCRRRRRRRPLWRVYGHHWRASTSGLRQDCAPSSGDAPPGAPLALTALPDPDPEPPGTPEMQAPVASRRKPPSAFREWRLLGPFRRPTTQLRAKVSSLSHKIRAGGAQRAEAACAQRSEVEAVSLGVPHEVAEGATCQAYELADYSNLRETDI
Put plainly: biochemical.
Description: Displacement of [3H]Prazosin from human recombinant alpha 1D adrenergic receptor expressed in CHO cells incubated for 30 mins by radioligand competition binding assay

Data set [5] addresses T5, Alpha-1A adrenergic receptor (Homo sapiens, UniProt P35348).
T5 sequence (P35348 whole entry): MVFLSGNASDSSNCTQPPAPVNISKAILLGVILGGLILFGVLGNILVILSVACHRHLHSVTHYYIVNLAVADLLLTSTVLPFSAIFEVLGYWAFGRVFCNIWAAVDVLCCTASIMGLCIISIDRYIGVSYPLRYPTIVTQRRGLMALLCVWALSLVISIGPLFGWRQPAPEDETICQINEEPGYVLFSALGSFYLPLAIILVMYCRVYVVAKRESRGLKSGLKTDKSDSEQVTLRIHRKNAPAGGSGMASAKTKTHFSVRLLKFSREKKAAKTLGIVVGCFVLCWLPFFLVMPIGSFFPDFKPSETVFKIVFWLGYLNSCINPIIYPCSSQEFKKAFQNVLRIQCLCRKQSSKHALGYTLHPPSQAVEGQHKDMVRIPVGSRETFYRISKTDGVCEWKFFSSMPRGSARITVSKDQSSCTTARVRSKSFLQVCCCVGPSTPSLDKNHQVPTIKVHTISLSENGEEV
Nature of the data set: biochemical.
Description: Displacement of [3H]Prazosin from human recombinant alpha 1A adrenergic receptor expressed in CHO cells incubated for 30 mins by radioligand competition binding assay

In data set [6] the target is T3, 5-hydroxytryptamine receptor 1A (Homo sapiens). Nature of the data set: Agonist activity at cloned human 5-HT1A receptor transfected in human HeLa cell membranes assessed as stimulation of [35S]GTPgammaS binding preincubated for 20 mins followed by [35S]GTPgammaS addition and measured after 30 mins by liquid scintillation counting. Format: functional.
Data set [7] shares this target. Put plainly: Agonist activity at cloned human 5-HT1A receptor transfected in human HeLa cell membranes preincubated for 20 mins followed by [35S]GTPgammaS addition and measured after 30 mins by liquid scintillation counting relative to 8-OH-DPAT. Format: functional.
Data set [8] concerns Fibroblast. Nature of the data set: (§1) Growth inhibition of human fibroblast cells incubated for 48 hrs by SRB assay. Format: cell-based. The settings on record: fibroblast, 48 h.
Data set [9] is described as follows: as §1. Format: cell-based. The settings on record: human fibroblast cells.
Data set [10] has as its target T6, D(4) dopamine receptor (Homo sapiens, UniProt P21917).
T6 sequence (P21917 whole entry): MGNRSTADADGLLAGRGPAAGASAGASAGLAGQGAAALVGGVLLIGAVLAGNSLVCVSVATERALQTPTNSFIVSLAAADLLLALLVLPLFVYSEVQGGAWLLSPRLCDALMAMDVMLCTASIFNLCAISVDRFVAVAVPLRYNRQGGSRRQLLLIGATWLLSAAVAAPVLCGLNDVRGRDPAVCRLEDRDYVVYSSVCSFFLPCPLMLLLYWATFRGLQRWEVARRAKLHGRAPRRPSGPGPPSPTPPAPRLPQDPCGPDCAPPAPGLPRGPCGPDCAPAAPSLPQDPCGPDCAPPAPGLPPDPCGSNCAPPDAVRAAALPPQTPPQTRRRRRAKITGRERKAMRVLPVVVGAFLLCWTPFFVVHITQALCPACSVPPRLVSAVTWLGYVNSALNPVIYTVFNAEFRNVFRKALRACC
Nature of the data set: Displacement of [3H]N-methylspiperone from human dopamine D4 receptor expressed in HEK293 cell membranes incubated for 1 hr by liquid scintillation counting.

The target in data set [11] is D(2) dopamine receptor (Homo sapiens, UniProt P14416). Nature of the data set: Displacement of [3H]N-methylspiperone from human dopamine D2 receptor expressed in HEK293 cell membranes incubated for 1 hr by liquid scintillation counting.
D(2) dopamine receptor, sequence (P14416 whole entry): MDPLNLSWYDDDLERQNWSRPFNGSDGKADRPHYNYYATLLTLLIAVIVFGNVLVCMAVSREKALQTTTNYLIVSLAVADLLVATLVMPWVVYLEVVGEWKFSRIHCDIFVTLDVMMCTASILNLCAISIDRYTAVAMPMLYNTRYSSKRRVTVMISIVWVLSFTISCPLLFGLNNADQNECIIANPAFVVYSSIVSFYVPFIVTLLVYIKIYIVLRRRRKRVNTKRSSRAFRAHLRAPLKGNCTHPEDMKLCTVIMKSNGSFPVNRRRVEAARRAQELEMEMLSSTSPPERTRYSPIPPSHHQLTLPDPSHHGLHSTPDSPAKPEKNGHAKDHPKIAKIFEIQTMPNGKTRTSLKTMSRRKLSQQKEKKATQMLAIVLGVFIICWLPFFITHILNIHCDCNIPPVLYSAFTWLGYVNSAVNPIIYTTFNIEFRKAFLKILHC
Data set [12] relates to DU-145. Nature of the data set: Growth inhibition of human DU145 cells incubated for 48 hrs by SRB assay. Format: functional. Particulars: DU-145, 48 h; for CC50: read-out: LC50 (the source's name).
In data set [13] the test system is PC-3. Put plainly: Growth inhibition of human PC3 cells incubated for 48 hrs by SRB assay. Type of data set: functional. The settings on record: PC-3, 48 h; for CC50: read-out: LC50 (the source's name).
The target in data set [14] is D(3) dopamine receptor (Homo sapiens, UniProt P35462). Put plainly: Displacement of [3H]N-methylspiperone from human dopamine D3 receptor expressed in HEK293 cell membranes incubated for 1 hr by liquid scintillation counting.
D(3) dopamine receptor, sequence (P35462 whole entry): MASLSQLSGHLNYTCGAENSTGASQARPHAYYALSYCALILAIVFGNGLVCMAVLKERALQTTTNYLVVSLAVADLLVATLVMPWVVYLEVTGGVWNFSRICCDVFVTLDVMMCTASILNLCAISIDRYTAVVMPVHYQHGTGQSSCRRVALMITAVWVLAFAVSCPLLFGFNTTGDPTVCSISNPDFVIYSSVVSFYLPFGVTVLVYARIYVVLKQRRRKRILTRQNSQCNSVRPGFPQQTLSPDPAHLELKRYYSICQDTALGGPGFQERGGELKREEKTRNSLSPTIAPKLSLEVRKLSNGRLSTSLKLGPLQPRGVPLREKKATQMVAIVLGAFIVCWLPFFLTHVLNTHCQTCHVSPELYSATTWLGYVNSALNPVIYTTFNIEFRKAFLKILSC

Bounds are passed on as bounds.

Consider `COc1ccccc1OCCNC[C@H]1OCCO[C@@H]1c1ccccc1` (relative stereo), for which the inhibition constant Ki in [1] was 0.00955 µM; in data set [2], > 1 µM; in data set [4], 0.0955 µM; in [5], > 1 µM. The pKb in [3] worked out at 8.2.
For the compound `COc1ccccc1OCCNCC1(c2ccccc2)COCCO1` (configuration not stated), the Ki in [1] is 0.0759 µM; in data set [2], > 1 µM; in [4], 0.0692 µM; in data set [5] it was > 1 µM.
Regarding `COc1cccc(OC)c1OCCNCC1(c2ccccc2)COCCO1` (configuration not stated), the Ki in data set [1], in data set [2], in [4] and in data set [5] was > 1 µM throughout.
Take `c1ccc(OCCNCC2(c3ccccc3)COCCO2)cc1` (configuration not stated): the Ki is 0.269 µM in data set [1], > 1 µM in data set [2], > 1 µM in [4] and > 1 µM in data set [5].
For the compound `COc1ccccc1OCCNC[C@H]1OCCO[C@H]1c1ccccc1` (relative stereo), the Ki in [1] is 0.0204 µM; in data set [2] it was > 1 µM; in data set [4] it was 0.126 µM; in [5], > 1 µM. For the same compound, in data set [6], the pD2 was found to be 7.13. The Emax in [7] came to 24.3%.
For the compound `c1ccc(OCCNC[C@H]2OCCO[C@H]2c2ccccc2)cc1` (relative stereo), the Ki in data set [1] was 0.214 µM; in data set [2], > 1 µM; in [4], > 1 µM; in [5], > 1 µM.
Regarding `c1ccc(OCCNCC2OCCOC2(c2ccccc2)c2ccccc2)cc1` (configuration not stated), the Ki was 0.0282 µM in data set [1], > 1 µM in data set [2], 0.316 µM in data set [4] and > 1 µM in data set [5]. Moreover, the pD2 in data set [6] stood at 6.71. In data set [7], this compound yielded an Emax of 32.9%.
Consider `COc1ccccc1N1CCN(C[C@H]2OCCOC2(c2ccccc2)c2ccccc2)CC1`, for which, in [8], the LC50 is > 300 µM. The TGI is > 300 µM in data set [8], 80 µM in data set [12] and 78 µM in data set [13]. Further, the concentration for 50% growth inhibition (GI50) at 48 h in data set [9] was > 300 µM. The Ki in data set [1] is 0.012 µM; in [10] it was 9.77 µM; in [2], 0.38 µM; in data set [11], 2.19 µM; in data set [4], 0.0891 µM; in data set [5] it was 0.355 µM. Further, affinity in [14] was put at a Ki of 2.88 µM. This compound came in with a negative logarithm of the Kb (pKb) in [3] of 8.14. Moreover, the GI50 was found to be 35 µM in data set [12] and 25 µM in data set [13]. Also, the results for the CC50 in [12] and in [13] were 180 µM and 240 µM, respectively.
`COc1cccc(OC)c1OCCNCC1OCCOC1(c1ccccc1)c1ccccc1` (configuration not stated): the Ki in data set [1] is 0.0661 µM; in data set [2], > 1 µM; in [4] it was > 1 µM; in [5], > 1 µM.
For the compound `c1ccc(OCCNC[C@H]2OCCO[C@@H]2c2ccccc2)cc1` (relative stereo), the Ki in data set [1] was 0.055 µM; in data set [2], > 1 µM; in data set [4] it was > 1 µM; in data set [5], > 1 µM.
Consider `COc1ccccc1N1CCN(CC2(c3ccccc3)COCCO2)CC1` (configuration not stated), for which the Ki in data set [1] was 0.174 µM; in data set [2], > 1 µM; in data set [4] it was > 1 µM; in data set [5], > 1 µM.
Turning to `COc1ccccc1N1CCN(C[C@H]2OCCO[C@@H]2c2ccccc2)CC1` (relative stereo), the Ki in data set [1] was 0.214 µM; in data set [2], > 1 µM; in data set [4] it was 0.0537 µM; in data set [5], > 1 µM.
Turning to `COc1ccccc1N1CCN(C[C@H]2OCCO[C@H]2c2ccccc2)CC1` (relative stereo), the Ki in data set [1] is 0.0708 µM; in [2], > 1 µM; in [4] it was 0.191 µM; in data set [5], > 1 µM.
In the case of `COc1ccccc1N1CCN(CC2COCC(c3ccccc3)(c3ccccc3)O2)CC1` (configuration not stated), the Ki in data set [1] was 0.00501 µM; in data set [10], 1.38 µM; in data set [2], 0.0229 µM; in [11], 0.112 µM; in data set [4] it was 0.00174 µM; in data set [5], 0.00263 µM. In [14], the affinity corresponds to a Ki of 0.257 µM. Besides, the pD2 in data set [6] came to 7.01. Besides, the Emax in data set [7] amounted to 39.3%.
Regarding `COc1cccc(OC)c1OCCNC[C@H]1OCCO[C@@H]1c1ccccc1` (relative stereo), the Ki in data set [1] was 0.0977 µM; in data set [2], > 1 µM; in data set [4], > 1 µM; in data set [5] it was > 1 µM.
For `COc1cccc(OC)c1OCCNC[C@H]1OCCO[C@H]1c1ccccc1` (relative stereo), the Ki is 0.182 µM in data set [1], > 1 µM in [2], > 1 µM in [4] and > 1 µM in [5].
Regarding `COc1ccccc1OCCNCC1COCC(c2ccccc2)(c2ccccc2)O1` (configuration not stated), in data set [8], the LC50 was > 300 µM and the TGI is 121.6 µM. Besides, the 50% growth inhibitory concentration (GI50) at 48 h in [9] was found to be 38.4 µM. In addition, the pD2 in [6] was found to be 9.4. Also, in data set [12], it took 23 µM to inhibit growth by half (GI50), the TGI was 42 µM and the CC50 amounted to 77 µM. For the same compound, in data set [13], the concentration for 50% growth inhibition (GI50) was 26 µM, the TGI was 64 µM and the CC50 is 157 µM.
